According to EP0558661B1, “POLYAZAMACROCYCLIC COMPOUNDS FOR COMPLEXATION OF METAL IONS” (BOARD OF REGENTS THE UNIVERSITY OF TEXAS SYSTEM, priority 1990, dated 1992):
Where two headings read alike, the source gives them in different places. Values belong to the molecule of their own block, whether it stands above or below them.

Tests used:
[1] = KD of the DOTEP calcium complex by 31P NMR and pH potentiometry; type: binding; settings: Ca(DOTEP); at pH 7.4
Experimental: The ^31P spectrum shown in Figure 9 was obtained on a solution containing approximately 1 mM Ca^2+ and 3 mM DOTEP in an aqueous solution at physiological pH. Clearly, the ^31P resonances of the free and bound forms of DOTEP have distinct chemical shifts and neither overlaps with the ^31P resonances of metabolites normally observed in tissue.
The value of KD at pH 7.4 reported above was determined by ^31P NMR (measuring the free and bound integrals as a function of pH in solutions containing known amounts of [Ca^2+]total and [DOTEP]total) and by pH potentiometry.

[2] = test system: RBCs; experiment: Red blood cell loading of NOTPME and intracellular free Mg2+ by 31P NMR; type: cell-based, Human
Experimental: Fresh whole blood was obtained placed in heparinized tubes and centrifuged at 3000 g for 6 min. to remove the buffy coat. RBCs were then washed three times in 5 mM phosphate buffered saline at pH 7.4. RBCs at 50% hematocrit were suspended in the loading medium containing 120 mM NaCl, 5 mM MgCl2, 10 mM HEPES pH 7.4, 10 mM glucose, and 10 mM NOTPME and incubated at 37°C for 12 hours. No lysis of RBCs were observed during the loading procedure. The RBCs were centrifuged and the supernatant discarded. The RBCs were washed twice with phosphate buffered saline at pH 7.4 before suspension in an isotonic medium.
Figure 6 illustrates one application of NOTPME to detect intracellular free Mg^2+ in RBCs. NOTPME loaded RBCs (Figure 6.b) were prepared by incubating RBCs at 37°C in a loading medium containing NOTPME in the presence of 5mM MgCl2 for 12 hours. NOTPME loading into RBCs was not observed in the absence of MgCl2 in the loading medium.
As in the in vitro studies, two resonances were observed corresponding to free and Mg^2+ bound NOTPME in RBCs. […] Since intracellular free Mg^2+ levels in RBCs normally range between 0.2 - 0.3 mM [12,19,20], the high concentration of intracellular free Mg^2+ observed in this experiment must have resulted from transport of Mg^2+ as a complex with NOTPME. Upon addition of the divalent cation ionophore A23187 to the suspension medium, an increase in intracellular free Mg^2+ concentration (to 1.90 mM) was observed (data not shown).

[3] = Protonation constants by potentiometric titration; type: physicochemical; settings: 0.1 m tetramethylammonium chloride
Experimental: (§1) Potentiometric titrations were conducted at 25°C using a Corning Ion Analyzer (model 250) and a Metrohm Dorsimat automatic burette (Brinkman Instruments). […] Na3NOTPME was dissolved in 0.1 M tetramethylammonium chloride, the pH adjusted to low pH value with HCl and titrated with 0.098 M KOH. KOH was standardized by potentiometric titration against potassium hydrogen phthalate and stored under N2 atmosphere. The hydrogen ion activity coefficient and Kw were determined separately in these same salt solutions. Stability constants of Zn(NOTPME)^-, Mg(NOTPME)^-, and Ca(NOTPME)^- were determined by potentiometric titration of solutions containing 1:1 ratio of metal and ligand. In all of the titrations, samples were covered by a layer of cyclohexane to exclude CO2.
(§2) Protonation constants (KHiL) and stability constants (KML, and KMHL) are defined by the following equations: KHiL = [Hi L] / {[Hi-1 (L] {H)^+ ]) [formula] KML = [ML] / {[M] [L]) [formula] KMHL (= [MHL] / {[ML] [H)^+ ]} [formula] Protonation and stability constants were obtained from the potentiometric data using a simplex non-linear algorithm run on an IBM PC.
A representative potentiometric titration curve for NOTPME in 0.1 M tetramethylammonium chloride and 25°C is illustrated in Figure 2. […] The phosphorous shifts are very sensitive to protonation of the nitrogens in the polyaza ring, similar to that observed for the parent phosphonate NOTP [17]. The first two protonations (log K = 11.8, 3.65) result in ^31P shifts to low frequency which is consistent with protonation at two ring nitrogens. […] These differences in pK2 may reflect differences in the ability of the phosphonate versus the phosphonate monoester side chains to form internal hydrogen bonds with the protonated nitrogens.

[4] = Solubility as observed on the isolated product; type: physicochemical
Experimental: 9.20 g of NOTPDE (14.15 mmol) was mixed with 2.50 g of NaOH in 9 ml H2O) and after 2 hours the entire reaction mixture was boiled until a clear solution was obtained (approximately 5 minutes). The solution was cooled to room temperature and was allowed to stand overnight. The crystals formed were filtered off from the viscous mother liquor using a pressure filter funnel with a coarse porosity grade filter disc. The crystals were washed once with cold absolute ethanol, three times with absolute ethanol-diethylether (1:1) mixture and finally with diethyl ether. The crystals of Na3NOTPME were dried in dry nitrogen stream at 25°C for 2 hours. Traces of H2O and ethanol were removed upon vacuum drying (10 mm Hg) NOTPME for 5 hours at 50°C. […] The yield of pure NOTPME was 40.8% (3.24 g, 5.77 mmol).
NOTPME trisodium salt (178.63 mg, 0.318 mmol) was dissolved in 4.0 ml anhydrous chloroform (freshly distilled from over P4O10) and 120 microliter acetyl chloride was added. The solution was stirred at room temperature for 24 hours in a tightly closed vessel. The solution was then evaporated under dry nitrogen atmosphere to a yellowish, very viscous oil. To the oil anhydrous ether was added and NOTPME-AC (precipitated as a sodium chloride adduct) was filtered off and dried at 35-40°C under dry nitrogen. NOTPME-AC (234.24 mg, 92.3% calculated on the basis of NOTPME-AC.3NaCl formula weight) is an extremely hygroscopic, water sensitive powder.
NOTPME trisodium salt (164.82 mg, 0.294 mmol) and benzoyl chloride (105 microliter, 0.883 mmol) were reacted in 4.0 ml anhydrous chloroform at room temperature for 24 hours. The rection mixture was worked up with identical method than was used in the synthesis of NOTPME-AC. The product NOTPME-B was get as a sodium chloride adduct (204.32 mg, 70.7% calculated on the basis of NOTPME-B.3NaCl formula weight). NOTPME-B is a very hygroscopic, water sensitive powder. It is soluble in water and chloroform and DMSO.

[5] = test system: red blood cells; experiment: Red blood cell loading of NOTPME derivatives; type: cell-based; settings: during the time course of NMR measurements, after loading with the derivatives
Experimental: NOTPME derivatives used are the benzoyl and acetyl derivatives. Fresh whole blood was obtained in heparinized tubes and centrifuged at 3000g for 3 minutes to remove the buffy coat. Packed red blood cells are then washed three times in 5 mM phosphate buffered saline at pH 7.4. Red blood cells at 50% hematocrit were suspended in the NOTPME derivative containing loading medium. The loading medium contained 130 mM NaCl, 5 mM NOTPME derivative (benzoyl or acetyl derivative), 1 mM adenine, 10 mM glucose, and 10 mM HEPES at pH 7.4. Red cells in the above loading medium were incubated at 25°C for 1 hour. No lysis of red blood cells were observed during the loading procedure. After loading with NOTPME derivatives for one hour, the red cell suspension was centrifuged and the supernatant discarded. The red cells are washed twice with 5 mM phosphate buffered saline at pH 7.4 before suspension in an isotonic saline for NMR measurements. […] After NMR measurements the sample was centrifuged and the supernatant analyzed for any leakage of NOTPME. No leak of NOTPME was observed during the time course of NMR measurements. thus, it is clear that these NOTPME derivatives enter the red cells, get hydrolyzed to NOTPME and remain inside red cells.

[6] = KD determination by 31P NMR (integration of free and metal bound resonances); type: binding
Experimental: ^1H NMR data was obtained on JEOL FX-200 NMR spectrometer using a 10 mm probe operating at room temperature. Studies on solutions of NOTPME and its complexes were performed on a General Electric GN-500 NMR spectrometer. A 10 mm broad band probe was tuned to 202.4 MHz for ^31P detection. Shifts for NOTPME and its complexes were measured using 85% H3PO4 as an external standard. Probe temperatures were accurate to ± 0.5°C.
Samples of NOTPME used for KD determinations by NMR consisted of 115 mM KCl, 20 mM NaCl and 10 mM HEPES buffered with Tris base at pH 7.4. Varying concentrations (typically 0.5 to 10 mM) of Mg^2+, Ca^2+ or Zn^2+ were added to the sample and the resulting ^31P NMR spectrum obtained. Resonance areas were determined by integration of peaks using the GE software.
The area of resonances corresponding to free and metal bound NOTPME were obtained by integration and their concentrations estimated.

[7] = Stability constants by potentiometric titration; type: binding; settings: for log KML: potentiometry at 25°C, 1:1 metal and ligand, 0.1 M tetramethylammonium chloride
Experimental: as §1, §2

[8] = 0.1 m hcl
Experimental: In this experiment, Gd(DOTEP)^- and Gd(DOTA)^- were dissolved in 0.1M HCl and their decomposition to free Gd^3+ and free ligand were followed by water relaxation measurements.

Kd [1]: 0.011 mM
Molecule: CCP(=O)(O)CN1CCN(CP(=O)(O)CC)CCN(CP(=O)(O)CC)CCN(CP(=O)(O)CC)CC1 [DOTEP]

Molecule: CCOP(=O)(O)CN1CCN(CP(=O)(O)OCC)CCN(CP(=O)(O)OCC)CC1 [NOTPME, 1,4,7-Triazacyclononane-N,N',N"-tris(methylenephosphonatemonoethylester)]
lysis of RBCs during the loading procedure ([2]; 10 mM NOTPME, 5 mM MgCl2, 37°C, 12 hours, 50% hematocrit): No lysis
loading into RBCs ([2]; in the absence of MgCl2 in the loading medium): not observed
loading into red blood cells ([2]; in the presence of Mg^2+): readily loaded
pKa ([3]; 25°C, read-out: pK1 (first protonation constant, log K1)): 11.8
pKa ([3]; 25°C, read-out: pK2 (second protonation constant, log K2)): 3.65
pKa ([3]; 25°C, read-out: pK3): 1.4
pKa ([3]; protonations of the phosphonate ester oxygens): < 1.4
solubility in chloroform [4]: fairly soluble
solubility in water [4]: readily soluble
leakage of NOTPME into the supernatant [5]: No leak
Kd ([6]; Ca^2+ complex, 115 mM KCl, 20 mM NaCl, 10 mM HEPES, pH 7.4, read-out: KD (at 25°X)): 50 mM
Kd ([6]; Ca^2+ complex, pH 7.4, read-out: KD (at 37°C)): 47.6 mM
Kd ([6]; Mg^2+ complex, 31P NMR, 115 mM KCl, 20 mM NaCl, 10 mM HEPES, pH 7.4, read-out: KD (at 25°X)): 5.77 mM
Kd ([6]; Mg^2+ complex, 31P NMR, pH 7.4, read-out: KD (at 37°C)): 4.66 mM
higher affinity for Mg^2+ than for Ca^2+ ([6]; at physiological pH values): 10 fold
log KML ([7]; Ca^2+): 5.1
log KML ([7]; Mg^2+): 6.3
Kd ([7]; Zn^2+ complex, estimated from log KML = 15.4, the ligand pK values and the proton concentration at pH 7.4): 10 pM

Molecule: CCOP(=O)(CN1CCN(CP(=O)(OCC)OC(C)=O)CCN(CP(=O)(OCC)OC(C)=O)CC1)OC(C)=O (centres unmarked) [NOTPME-AC, 1,4,7-triazacyclononane-N,N',N"-tris(methylenephosphonatemonoethylesteracetic acid anhydride)]
solubility in DMSO [4]: readily soluble
solubility in chloroform [4]: readily soluble
solubility in water [4]: readily soluble

Molecule: CCOP(=O)(CN1CCN(CP(=O)(OCC)OC(=O)c2ccccc2)CCN(CP(=O)(OCC)OC(=O)c2ccccc2)CC1)OC(=O)c1ccccc1 (centres unmarked) [NOTPME-B]
solubility in DMSO [4]: soluble
solubility in chloroform [4]: soluble
solubility in water [4]: soluble

half-lives for decomposition [8]: approximately 110 hrs.
Molecule: Gd(DOTA)^-
